≈ marks a conversion by molar mass, not a printed value. Where two headings read alike, the source gives them in different places.
Experiments:
E. coli k12 = assay: microbe, parasite or virus in culture; assay type: cell-based; conditions: for MIC: Escherichia coli, K12, read-out: MIC E. coli k12
S. pneumonia = assay: MIC against S. pneumonia; assay type: cell-based; conditions: Table 1
Protocol: (§1) The following compounds have been synthesized and tested for their activities against bacteria (Table 1) and their abilities to inhibit Dxr (Table 2). MIC is determined as described in Yendapally et al. (Journal of Medicinal Chemistry 2008, 51, 1487); and IC50 is determined as described in Henriksson et al. (Journal of Biological Chemistry 2007, 282, 19905).

S. aureus (MSSA) = assay: microbe, parasite or virus in culture; assay type: cell-based; conditions: for MIC: Staphylococcus aureus, MSSA, read-out: MIC S. aureus (MSSA)
E. faecalis = assay: microbe, parasite or virus in culture; assay type: cell-based; conditions: for MIC: Enterococcus faecalis, read-out: MIC E. faecalis
Klebsiella = assay: MIC against Klebsiella; assay type: cell-based; conditions: Table 1
Protocol: as §1

B. anthracis = assay: microbe, parasite or virus in culture; assay type: cell-based, Bacillus anthracis; conditions: for MIC: Bacillus anthracis, read-out: MIC B. anthracis
E. coli tolc = assay: microbe, parasite or virus in culture; assay type: cell-based; conditions: for MIC: Escherichia coli, read-out: MIC E. coli tolc
MRSA NRS 70 = assay: microbe, parasite or virus in culture; assay type: cell-based, S. aureus; conditions: for MIC: Staphylococcus aureus
P. aeruginosa = assay: MIC against P. aeruginosa; assay type: cell-based; conditions: Pseudomonas aeruginosa; Table 1
Protocol: as §1

Acinetobacter = assay: microbe, parasite or virus in culture; assay type: cell-based; conditions: for MIC: Acinetobacter, read-out: MIC Acinetobacter
Mtb H37Rv (ATCC 27294) = assay: microbe, parasite or virus in culture; assay type: cell-based, Mycobacterium tuberculosis; conditions: for MIC: Mycobacterium tuberculosis
M. tuberculosis Dxr = M. tuberculosis Dxr (Mycobacterium tuberculosis, UniProt P9WNS1); assay: biochemical; conditions: IC50 (μM)
[1] = read-out: Mtb MIC (ug/mL) (7H9)
[2] = read-out: Mtb MIC (ug/mL) (GAST)
[3] = read-out: MIC M. tuberculosis (H37Rv)

M. tuberculosis Dxr, sequence (P9WNS1 whole entry, looked up): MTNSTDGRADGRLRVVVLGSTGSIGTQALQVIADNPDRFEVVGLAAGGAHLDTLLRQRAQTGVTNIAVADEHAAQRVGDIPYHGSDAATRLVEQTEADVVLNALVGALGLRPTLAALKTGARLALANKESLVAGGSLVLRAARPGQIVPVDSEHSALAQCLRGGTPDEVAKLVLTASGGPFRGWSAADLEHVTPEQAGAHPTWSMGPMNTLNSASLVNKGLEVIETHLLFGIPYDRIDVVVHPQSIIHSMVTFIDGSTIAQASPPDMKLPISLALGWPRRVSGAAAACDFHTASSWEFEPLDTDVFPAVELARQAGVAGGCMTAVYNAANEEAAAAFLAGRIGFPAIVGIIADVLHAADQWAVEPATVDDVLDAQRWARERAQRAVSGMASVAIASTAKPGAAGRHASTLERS

| Structure (SMILES) | MIC (E. coli k12) [µg/mL] | MIC (S. pneumonia) [µg/mL] | MIC (S. aureus (MSSA)) [µg/mL] | MIC (E. faecalis) [µg/mL] | MIC (Klebsiella) [µg/mL] | MIC (B. anthracis) [µg/mL] | MIC (E. coli tolc) [µg/mL] | MIC (MRSA NRS 70; read-out: MIC MRSA NRS 70) [µg/mL] | MIC (P. aeruginosa) [µg/mL] | MIC (Acinetobacter) [µg/mL] | MIC (Mtb H37Rv (ATCC 27294); read-out: MIC H37 Rv) [µg/mL] | MIC (Mtb H37Rv (ATCC 27294); read-out: Mtb MIC (ug/mL)) [µg/mL] | MIC E. coli k12 (E. coli k12) [µg/mL] | MIC S. aureus (MSSA) (S. aureus (MSSA)) [µg/mL] | MIC E. faecalis (E. faecalis) [µg/mL] | MIC B. anthracis (B. anthracis) [µg/mL] | MIC E. coli tolc (E. coli tolc) [µg/mL] | MIC S. aureus (MRSA) (MRSA NRS 70) [µg/mL] | MIC Acinetobacter (Acinetobacter) [µg/mL] | MIC M. tuberculosis (H37Rv) (Mtb H37Rv (ATCC 27294)) [µg/mL] | also measured |
| --- | --- | --- | --- | --- | --- | --- | --- | --- | --- | --- | --- | --- | --- | --- | --- | --- | --- | --- | --- | --- | --- |
| CCOP(=O)(CCCN(O)C(=O)CCCc1ccccc1)OCC [ERJ 79] | > 200 | > 200 | 100 (≈ 280 µM) | > 200 | > 200 | > 200 | > 200 | 50 (≈ 140 µM) | > 200 | > 200 | > 200 | – | – | – | – | – | – | – | – | – | MIC (Mtb H37Rv (ATCC 27294); [1]): 3.12 µg/mL (≈ 8.74 µM); MIC (Mtb H37Rv (ATCC 27294); [2]): > 200 µg/mL |
| CCOP(=O)(CCCN(O)C(=O)c1ccccc1)OCC [ERJ 58] | > 200 | > 200 | > 200 | > 200 | > 200 | > 200 | > 200 | > 200 | > 200 | > 200 | > 200 | – | – | – | – | – | – | – | – | – | MIC (Mtb H37Rv (ATCC 27294); [1]): > 500 µg/mL; MIC (Mtb H37Rv (ATCC 27294); [2]): 31.2 µg/mL (≈ 99.1 µM) |
| CC(=O)N(O)CCCP(=O)(O)O [FR900098, reference compound] | 200 (≈ 1010 µM) | – | > 200 | > 200 | – | 50 (≈ 254 µM) | 12.5 (≈ 63.4 µM) | – | – | 50 (≈ 254 µM) | – | > 200 | – | – | – | – | – | – | – | – | IC50 (M. tuberculosis Dxr): 2 µM; MIC (MRSA NRS 70; read-out: MIC S. aureus (MRSA)): 50 µg/mL (≈ 254 µM); antitubercular activity (in words) (Mtb H37Rv (ATCC 27294)): inactive; MIC (Mtb H37Rv (ATCC 27294); [3]): > 500 µg/mL |
| CCOP(=O)(CCCN(OCCc1ccc(OC)cc1)C(C)=O)OCC [GSJ 31] | > 200 | > 200 | 200 (≈ 516 µM) | > 200 | > 200 | > 200 | > 200 | 50 (≈ 129 µM) | > 200 | > 200 | > 200 | > 200 | – | – | – | – | – | – | – | – | – |
| CCOP(=O)(CCCN(O)C(=O)c1cccc2ccccc12)OCC [ERJ 93] | > 200 | > 200 | 100 (≈ 274 µM) | 200 (≈ 547 µM) | > 200 | 200 (≈ 547 µM) | > 200 | 50 (≈ 137 µM) | > 200 | > 200 | > 200 | – | – | – | – | – | – | – | – | – | – |
| CCOP(=O)(CCCN(OCCCc1ccccc1)C(C)=O)OCC [GSJ 27] | > 200 | > 200 | > 200 | > 200 | > 200 | > 200 | > 200 | > 200 | > 200 | > 200 | > 200 | > 200 | – | – | – | – | – | – | – | – | – |
| CCOP(=O)(CCCN(O)C(=O)c1ccc(-c2ccccc2)cc1)OCC [ERJ 104] | > 200 | > 200 | 100 (≈ 255 µM) | > 200 | > 200 | > 200 | 100 (≈ 255 µM) | 100 (≈ 255 µM) | > 200 | > 200 | > 200 | – | – | – | – | – | – | – | – | – | – |
| CCOP(=O)(CCCN(OC(C)c1ccccc1)C(C)=O)OCC (stereo not shown) [GSJ 28] | > 200 | > 200 | 100 (≈ 280 µM) | > 200 | > 200 | > 200 | > 200 | 50 (≈ 140 µM) | > 200 | > 200 | > 200 | > 200 | – | – | – | – | – | – | – | – | – |
| O=CN(O)CCCP(=O)(O)O [Fosmidomycin, reference compound] | 12.5 (≈ 68.3 µM) | – | > 200 | > 200 | – | 0.78 (≈ 4.26 µM) | 6.25 (≈ 34.1 µM) | – | – | 100 (≈ 546 µM) | – | – | – | – | – | – | – | – | – | – | activity against B. anthracis (MIC) (B. anthracis): 0.78 lg/mL; MIC (MRSA NRS 70; read-out: MIC S. aureus (MRSA)): 200 µg/mL (≈ 1090 µM); MIC (Mtb H37Rv (ATCC 27294); read-out: MIC 7H9 (μg/mL)): > 500 µg/mL; MIC (Mtb H37Rv (ATCC 27294); read-out: MIC GAST/Fe (μg/mL)): > 500 µg/mL; MIC (Mtb H37Rv (ATCC 27294); [3]): > 500 µg/mL |
| CCOP(=O)(CCCN(OCCCCc1ccccc1)C(C)=O)OCC [GSJ 26] | > 200 | > 200 | 100 (≈ 259 µM) | 200 (≈ 519 µM) | > 200 | > 200 | 200 (≈ 519 µM) | 200 (≈ 519 µM) | > 200 | > 200 | – | – | – | – | – | – | – | – | – | – | MIC H37 Rv (Mtb H37Rv (ATCC 27294)): Some act 200; Mtb MIC (ug/mL) (Mtb H37Rv (ATCC 27294)): SA 200 |
| CCOP(=O)(CCCN(O)C=O)OCC [Compound 10, Diethyl fosmidomycin] | – | – | – | – | – | – | – | – | – | – | – | – | >200 | >200 | >200 | >200 | >200 | >200 | >200 | 400 (≈ 1670 µM) | – |
| CC(=O)N(O)CCCP(=O)(OC(C)OC(=O)c1ccccc1)OC(C)OC(=O)c1ccccc1 (stereo not shown) [Compound 27] | – | – | – | – | – | – | – | – | – | – | – | – | 50 (≈ 101 µM) | >200 | >200 | 50 (≈ 101 µM) | 50 (≈ 101 µM) | >200 | 100 (≈ 203 µM) | 100 to 200 | – |
| CCOP(=O)(CCCN(OCCc1ccccc1)C(C)=O)OCC [GSJ 25] | > 200 | > 200 | > 200 | > 200 | > 200 | > 200 | > 200 | > 200 | > 200 | > 200 | > 200 | > 200 | – | – | – | – | – | – | – | – | – |
| CC(=O)N(O)CCCP(=O)(OCOC(=O)C(C)(C)C)OCOC(=O)C(C)(C)C [Compound 24] | – | – | – | – | – | – | – | – | – | – | – | – | >200 | 100 (≈ 235 µM) | >200 | 200 (≈ 470 µM) | 100 (≈ 235 µM) | 50 (≈ 118 µM) | >200 | 50 to 100 | antitubercular activity (in words) (Mtb H37Rv (ATCC 27294)): better antitubercular activity |
| CC(=O)N(O)CCCP(=O)(OCOC(=O)c1ccccc1)OCOC(=O)c1ccccc1 [Compound 26] | – | – | – | – | – | – | – | – | – | – | – | – | >200 | >200 | >200 | 100 (≈ 215 µM) | 50 (≈ 107 µM) | >200 | 200 (≈ 430 µM) | 25 to 100 | antitubercular activity (in words) (Mtb H37Rv (ATCC 27294)): better antitubercular activity |
| CCOC(=O)OC(C)OP(=O)(CCCN(O)C(C)=O)OC(C)OC(=O)OCC (stereo not shown) [Compound 22] | – | – | – | – | – | – | – | – | – | – | – | – | >200 | >200 | >200 | >200 | 200 (≈ 466 µM) | >200 | >200 | 400 (≈ 932 µM) | – |

Reference: patent US9593136B2 (priority 2011, dated 2017)
